Assay results reported in ChEMBL document CHEMBL1201862, “PubChem BioAssay data set” (2004).
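Method: 48-hour compound exposure of cells in 96-well plates, five concentrations, linear interpolation of endpoints. Abbreviation: GI50, concentration required for 50% inhibition of growth.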 Calls of active or inactive are those of the source. No stated cut-off is given here; in the data, active = GI50 up to about 1.1 µM and inactive = higher.

How the values were obtained:
Assay in all cases: DTP human tumour cell line panel, 48 h
[1] = system: SF-295
[2] = system: HCC 2998
[3] = system: UO-31
[4] = system: SNB-75
[5] = system: U-251
[6] = system: LXFL 529
[7] = system: ACHN
[8] = system: SK-OV-3
[9] = system: DMS-273
[10] = system: SN12C
[11] = system: KM12
[12] = system: DLD-1
[13] = system: IGROV-1
[14] = system: KM-20L2
[15] = system: HCT-116
[16] = system: SK-MEL-5
[17] = system: SNB-78
[18] = system: HL-60
[19] = system: M19-MEL
[20] = system: OVCAR-4
[21] = system: NCI-H522
[22] = system: M14
[23] = system: K562
[24] = system: SNB-19
[25] = system: 786-0
[26] = system: A549
[27] = system: HCT-15
[28] = system: HOP-62
[29] = system: HT-29
[30] = system: DMS-114
[31] = system: OVCAR-5
[32] = system: TK-10
[33] = system: EKVX
[34] = system: A498
[35] = system: NCI-H460
[36] = system: UACC-62
[37] = system: HOP-92
[38] = system: NCI-H23
[39] = system: OVCAR-3
[40] = system: CCRF-CEM
[41] = system: SF-539
[42] = system: MOLT-4
[43] = system: SK-MEL-2
[44] = system: SW-620
[45] = system: COLO 205
[46] = system: RPMI-8226
[47] = system: NCI-H226
[48] = system: SF-268
[49] = system: OVCAR-8
[50] = system: LOX IMVI
[51] = system: RXF 393
[52] = system: SK-MEL-28
[53] = system: SR
[54] = system: UACC-257
[55] = system: Malme-3M

Which GI50 [1] does the source give for `COCC1N=C(c2ccc(OC)c(OCc3ccccc3)c2OC)O[C@H]1c1ccccc1` (stereo partly drawn) here?
Its GI50 is 25.6 µM (inactive).

And the GI50 [2]?
The GI50 was 35.6 µM (inactive).

And the GI50 [3]?
The GI50 was 4.89 µM (inactive).

What about the GI50 [4] of the same compound?
Its GI50 is 25.3 µM (inactive).

And the GI50 [5]?
The GI50 was 18.1 µM (inactive).

What about the GI50 [6] of the same compound?
The GI50 was 14.8 µM (inactive).

And the GI50 [7]?
Its GI50 is 12.9 µM (inactive).

And the GI50 [8]?
Its GI50 is 46.6 µM (inactive).

What about the GI50 [9] of the same compound?
Its GI50 is 15.8 µM (inactive).

And the GI50 [10]?
Its GI50 is 20.5 µM (inactive).

And the GI50 [11]?
Its GI50 is 21.2 µM (inactive).

What about the GI50 [12] of the same compound?
Its GI50 is 20.6 µM (inactive).

And the GI50 [13]?
Its GI50 is 32.4 µM (inactive).

And the GI50 [14]?
The GI50 was 17.9 µM (inactive).

What about the GI50 [15] of the same compound?
The GI50 was 11.9 µM (inactive).

What about the GI50 [16] of the same compound?
Its GI50 is 11.9 µM (inactive).

What about the GI50 [17] of the same compound?
The GI50 was 29.1 µM (inactive).

And the GI50 [18]?
The GI50 was 15.2 µM (inactive).

What about the GI50 [19] of the same compound?
The GI50 was 17.4 µM (inactive).

And the GI50 [20]?
The GI50 was 20.5 µM (inactive).

And the GI50 [21]?
Its GI50 is 20.8 µM (inactive).

What about the GI50 [22] of the same compound?
Its GI50 is 14.6 µM (inactive).

And the GI50 [23]?
Its GI50 is 12.3 µM (inactive).

What about the GI50 [24] of the same compound?
The GI50 was 29.9 µM (inactive).

What about the GI50 [25] of the same compound?
Its GI50 is 29.9 µM (inactive).

And the GI50 [26]?
The GI50 was 24.5 µM (inactive).

What about the GI50 [27] of the same compound?
The GI50 was 17.5 µM.

And the GI50 [28]?
The GI50 was 37.2 µM (inactive).

What about the GI50 [29] of the same compound?
Its GI50 is 19.8 µM (inactive).

And the GI50 [30]?
The GI50 was 12.2 µM (inactive).

What about the GI50 [31] of the same compound?
The GI50 was 25 µM (inactive).

What about the GI50 [32] of the same compound?
Its GI50 is 35.2 µM (inactive).

And the GI50 [33]?
The GI50 was 34 µM (inactive).

What about the GI50 [34] of the same compound?
The GI50 was 6.19 µM (inactive).

And the GI50 [35]?
Its GI50 is 11.1 µM (inactive).

And the GI50 [36]?
The GI50 was 15.8 µM (inactive).

And the GI50 [37]?
The GI50 was 13.1 µM (inactive).

What about the GI50 [38] of the same compound?
Its GI50 is 17.7 µM (inactive).

And the GI50 [39]?
The GI50 was 16 µM (inactive).

What about the GI50 [40] of the same compound?
Its GI50 is 15.3 µM (inactive).

What about the GI50 [41] of the same compound?
Its GI50 is 17.4 µM (inactive).

What about the GI50 [42] of the same compound?
The GI50 was 5.81 µM (inactive).

What about the GI50 [43] of the same compound?
Its GI50 is 23.4 µM (inactive).

What about the GI50 [44] of the same compound?
Its GI50 is 34.8 µM (inactive).

And the GI50 [45]?
Its GI50 is 18.1 µM (inactive).

What about the GI50 [46] of the same compound?
The GI50 was 5.65 µM (inactive).

And the GI50 [47]?
The GI50 was 29 µM (inactive).

And the GI50 [48]?
Its GI50 is 25.8 µM (inactive).

And the GI50 [49]?
Its GI50 is 23.1 µM (inactive).

And the GI50 [50]?
The GI50 was 13.9 µM (inactive).

What about the GI50 [51] of the same compound?
Its GI50 is 29.3 µM (inactive).

And the GI50 [52]?
Its GI50 is 20.7 µM (inactive).

With `CCOC(=O)c1cnc2oc(-c3ccc(OC)cc3)nn2c1=O` as the compound, how does the GI50 [1] read?
The GI50 was > 100 µM (inactive).

And the GI50 [2]?
The GI50 was > 100 µM (inactive).

What about the GI50 [3] of the same compound?
The GI50 was > 100 µM (inactive).

And the GI50 [4]?
Its GI50 is 45.3 µM (inactive).

What about the GI50 [5] of the same compound?
The GI50 was > 100 µM (inactive).

And the GI50 [6]?
Its GI50 is > 100 µM (inactive).

What about the GI50 [8] of the same compound?
Its GI50 is > 100 µM (inactive).

And the GI50 [9]?
The GI50 was > 100 µM (inactive).

And the GI50 [10]?
Its GI50 is > 100 µM (inactive).

And the GI50 [11]?
The GI50 was > 100 µM (inactive).

And the GI50 [13]?
Its GI50 is > 100 µM (inactive).

What about the GI50 [14] of the same compound?
The GI50 was > 100 µM (inactive).

And the GI50 [15]?
Its GI50 is > 100 µM (inactive).

And the GI50 [16]?
Its GI50 is > 100 µM (inactive).

And the GI50 [17]?
The GI50 was > 100 µM (inactive).

And the GI50 [19]?
The GI50 was > 100 µM (inactive).

What about the GI50 [20] of the same compound?
The GI50 was > 100 µM (inactive).

What about the GI50 [21] of the same compound?
The GI50 was 79.1 µM (inactive).

What about the GI50 [23] of the same compound?
Its GI50 is > 100 µM (inactive).

And the GI50 [24]?
The GI50 was > 100 µM (inactive).

And the GI50 [25]?
The GI50 was > 100 µM (inactive).

What about the GI50 [26] of the same compound?
The GI50 was > 100 µM (inactive).

And the GI50 [27]?
The GI50 was over 100 µM.

And the GI50 [29]?
The GI50 was > 100 µM (inactive).

And the GI50 [30]?
Its GI50 is > 100 µM (inactive).

What about the GI50 [31] of the same compound?
Its GI50 is > 100 µM (inactive).

And the GI50 [32]?
The GI50 was > 100 µM (inactive).

What about the GI50 [33] of the same compound?
Its GI50 is > 100 µM (inactive).

And the GI50 [36]?
The GI50 was 71.1 µM (inactive).

And the GI50 [37]?
The GI50 was 29.5 µM (inactive).

What about the GI50 [38] of the same compound?
The GI50 was > 100 µM (inactive).

And the GI50 [39]?
Its GI50 is > 100 µM (inactive).

What about the GI50 [53] of the same compound?
The GI50 was > 10 µM (inactive).

And the GI50 [41]?
Its GI50 is > 100 µM (inactive).

What about the GI50 [42] of the same compound?
The GI50 was > 100 µM (inactive).

And the GI50 [43]?
Its GI50 is > 100 µM (inactive).

What about the GI50 [44] of the same compound?
Its GI50 is > 100 µM (inactive).

And the GI50 [54]?
Its GI50 is > 100 µM (inactive).

And the GI50 [45]?
The GI50 was > 100 µM (inactive).

And the GI50 [46]?
The GI50 was > 100 µM (inactive).

And the GI50 [55]?
Its GI50 is > 100 µM (inactive).

What about the GI50 [47] of the same compound?
The GI50 was > 100 µM (inactive).

What about the GI50 [48] of the same compound?
The GI50 was > 100 µM (inactive).

What about the GI50 [49] of the same compound?
Its GI50 is > 100 µM (inactive).

What about the GI50 [51] of the same compound?
Its GI50 is 93.1 µM (inactive).

What about the GI50 [52] of the same compound?
The GI50 was > 100 µM (inactive).
